Data on 24 molecules can be found in patent US8431563B2 (priority 2010, dated 2013).

Where a name gives a salt, the structure may show the parent alone.

The target of experiment [1] is T1, GKRP (Glucokinase Regulatory Protein) with human His-hepatic GK (Homo sapiens, UniProt Q14397).
T1 sequence (Q14397 1-625): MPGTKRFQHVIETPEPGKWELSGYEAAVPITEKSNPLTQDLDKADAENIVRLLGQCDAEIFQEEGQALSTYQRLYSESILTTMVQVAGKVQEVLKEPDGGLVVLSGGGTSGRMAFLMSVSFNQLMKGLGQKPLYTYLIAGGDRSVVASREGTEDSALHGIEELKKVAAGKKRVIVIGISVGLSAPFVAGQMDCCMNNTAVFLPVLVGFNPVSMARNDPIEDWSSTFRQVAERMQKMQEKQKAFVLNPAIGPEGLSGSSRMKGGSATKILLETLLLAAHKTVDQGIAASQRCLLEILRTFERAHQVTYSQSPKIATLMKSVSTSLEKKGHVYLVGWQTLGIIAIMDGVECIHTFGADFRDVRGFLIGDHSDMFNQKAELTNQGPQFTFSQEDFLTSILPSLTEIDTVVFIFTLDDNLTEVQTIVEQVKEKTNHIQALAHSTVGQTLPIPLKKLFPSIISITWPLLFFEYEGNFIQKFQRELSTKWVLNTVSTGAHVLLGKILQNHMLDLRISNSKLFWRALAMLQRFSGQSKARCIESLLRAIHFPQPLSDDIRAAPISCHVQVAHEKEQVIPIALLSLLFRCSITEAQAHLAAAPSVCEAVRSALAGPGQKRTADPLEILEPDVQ
Put plainly: GKRP NADPH Coupled Assay. The format is biochemical. The settings on record: indirect measure of glucose-6-phosphate, fluorescence, 1 μM GKRP (10×), 20 nM GK (5×). Put shortly: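 Human His-hepatic GK (5× stock 20 nM) in 50 mM Tris pH 7.5, 4 mM MgCl2, 6% DMSO, 0.1% BSA, 0.01% Brij-35, with GKRP and compound preincubated 30 min, then reaction 1 h at RT. Glucose-6-phosphate read indirectly via G6P dehydrogenase-coupled NADPH formation from β-NADP (2× stop/detection reagent, pH 9.2, 5 min).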

The target in experiment [2] is T1, GKRP (Glucokinase Regulatory Protein) with human His-hepatic GK. Put plainly: GKRP LC MS/MS Biochemical Assay. The settings on record: 13C-glucose-6-phosphate formation, 1 μM GKRP (10×), 30 nM GK (5×). In outline:
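Human His-hepatic GK (working stock 30 nM, 5×) with GKRP in 50 mM Tris pH 7.5, 4 mM MgCl2, 6% DMSO, DTT, BSA and Brij-35. After a 30 min preincubation, GK was added and the reaction ran 30 min at room temperature. Stopped with acetonitrile; 13C-glucose-6-phosphate formed from 13C-glucose quantified by LC MS/MS.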

With `O=S(=O)(c1ccccc1)N1CCN(c2ccc(C(O)(C(F)(F)F)C(F)(F)F)cc2)CC1` [Example 2, 1,1,1,3,3,3-hexafluoro-2-(4-(4-(phenylsulfonyl)-1-piperazinyl)phenyl)-2-propanol], the EC50 in experiment [1] (GK-GKRP EC50 (NADPH-coupled)) turned out to be 803 nM; in experiment [2] (GK-GKRP EC50 (LC MS/MS)), 1100 nM.
Turning to `O=S(=O)(c1ccsc1)N1CCN(c2ccc(C(O)(C(F)(F)F)C(F)(F)F)cc2)CC1` [Example 3, 1,1,1,3,3,3-hexafluoro-2-(4-(4-(3-thiophenylsulfonyl)-1-piperazinyl)phenyl)-2-propanol], the EC50 in experiment [1] (GK-GKRP EC50 (NADPH-coupled)) was determined as 597 nM; in experiment [2] (GK-GKRP EC50 (LC MS/MS)) it was 964 nM.
Consider `Cc1ccccc1S(=O)(=O)N1CCN(c2ccc(C(O)(C(F)(F)F)C(F)(F)F)cc2)CC1` [Example 4, 1,1,1,3,3,3-hexafluoro-2-(4-(4-((2-methylphenyl)sulfonyl)-1-piperazinyl)phenyl)-2-propanol], for which the EC50 turned out to be 1270 nM in experiment [1] (GK-GKRP EC50 (NADPH-coupled)) and 1710 nM in experiment [2] (GK-GKRP EC50 (LC MS/MS)).
As for `Cn1ccc(S(=O)(=O)N2CCN(c3ccc(C(O)(C(F)(F)F)C(F)(F)F)cc3)CC2)n1` [Example 5, 1,1,1,3,3,3-hexafluoro-2-(4-(4-((1-methyl-1H-pyrazol-3-yl)sulfonyl)-1-piperazinyl)phenyl)-2-propanol], the EC50 amounted to 1580 nM in experiment [1] (GK-GKRP EC50 (NADPH-coupled)) and 5380 nM in experiment [2] (GK-GKRP EC50 (LC MS/MS)).
For `O=S(=O)(c1ccccc1F)N1CCN(c2ccc(C(O)(C(F)(F)F)C(F)(F)F)cc2)CC1` [Example 6, 1,1,1,3,3,3-hexafluoro-2-(4-(4-((2-fluorophenyl)sulfonyl)-1-piperazinyl)phenyl)-2-propanol], the EC50 in experiment [1] (GK-GKRP EC50 (NADPH-coupled)) was 1880 nM; in experiment [2] (GK-GKRP EC50 (LC MS/MS)), 1520 nM.
For `O=S(=O)(c1ccccn1)N1CCN(c2ccc(C(O)(C(F)(F)F)C(F)(F)F)cc2)CC1` [Example 7, 1,1,1,3,3,3-hexafluoro-2-(4-(4-(2-pyridinylsulfonyl)-1-piperazinyl)phenyl)-2-propanol], the results for the EC50 in experiment [1] (GK-GKRP EC50 (NADPH-coupled)) and in experiment [2] (GK-GKRP EC50 (LC MS/MS)) were 3780 nM and 3290 nM, respectively.
`Cc1ccc(S(=O)(=O)N2CCN(c3ccc(C(O)(C(F)(F)F)C(F)(F)F)cc3)CC2)s1` [Example 8, 1,1,1,3,3,3-hexafluoro-2-(4-(4-((5-methyl-2-thiophenyl)sulfonyl)-1-piperazinyl)phenyl)-2-propanol]: the EC50 came out at 4580 nM in experiment [1] (GK-GKRP EC50 (NADPH-coupled)) and 11400 nM in experiment [2] (GK-GKRP EC50 (LC MS/MS)).
As to `O=S(=O)(c1cccc(Cl)c1)N1CCN(c2ccc(C(O)(C(F)(F)F)C(F)(F)F)cc2)CC1` [Example 9, 2-(4-(4-(3-chlorophenylsulfonyl)piperazin-1-yl)phenyl)-1,1,1,3,3,3-hexafluoro-2-propanol], the EC50 in experiment [1] (GK-GKRP EC50 (NADPH-coupled)) was 4410 nM; in experiment [2] (GK-GKRP EC50 (LC MS/MS)), 3710 nM.
With `O=S(=O)(c1ccccc1Cl)N1CCN(c2ccc(C(O)(C(F)(F)F)C(F)(F)F)cc2)CC1` [Example 10, 2-(4-(4-((2-chlorophenyl)sulfonyl)-1-piperazinyl)phenyl)-1,1,1,3,3,3-hexafluoro-2-propanol], the figures for the EC50 in experiment [1] (GK-GKRP EC50 (NADPH-coupled)) and in experiment [2] (GK-GKRP EC50 (LC MS/MS)) were 3950 nM and 2600 nM, respectively.
Regarding `C[C@H]1CN(S(=O)(=O)c2ccccc2)CCN1c1ccc(C(O)(C(F)(F)F)C(F)(F)F)cc1` [Example 12, 1,1,1,3,3,3-hexafluoro-2-(4-((2S)-2-methyl-4-(phenylsulfonyl)-1-piperazinyl)phenyl)-2-propanol], the EC50 in experiment [1] (GK-GKRP EC50 (NADPH-coupled)) was 821 nM; in experiment [2] (GK-GKRP EC50 (LC MS/MS)), 884 nM.
For `O=S(=O)(c1ccccc1)c1ccc(-c2ccc(C(O)(C(F)(F)F)C(F)(F)F)cn2)cc1` [Example 17, 1,1,1,3,3,3-hexafluoro-2-(6-(4-(phenylsulfonyl)phenyl)-3-pyridinyl)-2-propanol], in that order: 1630 nM and 1710 nM.
Take `O=S(=O)(c1ccccc1)c1ccc(-c2ccc(C(O)(C(F)(F)F)C(F)(F)F)cc2)cc1` [Example 21, 1,1,1,3,3,3-hexafluoro-2-(4′-(phenylsulfonyl)-4-biphenylyl)-2-propanol]: the EC50 in experiment [1] (GK-GKRP EC50 (NADPH-coupled)) was 1660 nM; in experiment [2] (GK-GKRP EC50 (LC MS/MS)), 3960 nM.
As to `O=S(=O)(c1ccccc1)N1CCN(c2ccc(C(O)(C(F)(F)F)C(F)(F)F)cn2)CC1` [Example 22, 1,1,1,3,3,3-hexafluoro-2-(6-(4-(phenylsulfonyl)-1-piperazinyl)-3-pyridinyl)-2-propanol], the EC50 is 2730 nM in experiment [1] (GK-GKRP EC50 (NADPH-coupled)) and 2080 nM in experiment [2] (GK-GKRP EC50 (LC MS/MS)).
The corresponding values for `C[C@H]1CN(S(=O)(=O)c2nccs2)CCN1c1ccc(C(O)(C(F)(F)F)C(F)(F)F)cc1` [Example 31, 1,1,1,3,3,3-hexafluoro-2-(4-((2S)-2-methyl-4-(1,3-thiazol-2-ylsulfonyl)-1-piperazinyl)phenyl)-2-propanol trifluoroacetate] are 561 nM and 702 nM.
`O=S(=O)(c1nccs1)N1CCN(c2ccc(C(O)(C(F)(F)F)C(F)(F)F)cc2)CC1` [Example 33, 1,1,1,3,3,3-hexafluoro-2-(4-(4-(1,3-thiazol-2-ylsulfonyl)-1-piperazinyl)phenyl)-2-propanol trifluoroacetate]: the figures for the EC50 in experiment [1] (GK-GKRP EC50 (NADPH-coupled)) and in experiment [2] (GK-GKRP EC50 (LC MS/MS)) were 664 nM and 842 nM, respectively.
As to `CC(O)(c1ccc(N2CCN(S(=O)(=O)c3ccccc3)CC2CC2CCOCC2)cc1)C(F)(F)F` (stereo not drawn) [Example 41, 1,1,1-trifluoro-2-(4-(4-(phenylsulfonyl)-2-(tetrahydro-2H-pyran-4-ylmethyl)-1-piperazinyl)phenyl)-2-propanol], the values for the EC50 in experiment [1] (read-out: GK-GKRP EC50 (NADPH-coupled)) and in experiment [2] (read-out: GK-GKRP EC50 (LC MS/MS)) were 785 nM and 572 nM, respectively.
For `C[C@H]1COCCN1C[C@H]1CN(S(=O)(=O)c2cccs2)CCN1c1ccc([C@@](C)(O)C(F)(F)F)cc1` [Example 45 Peak #2, 1,1,1-trifluoro-2-(4-((2S)-2-(((3S)-3-methyl-4-morpholinyl)methyl)-4-(2-thiophenylsulfonyl)-1-piperazinyl)phenyl)-2-propanol], the EC50 was found to be 68 nM in experiment [1] (GK-GKRP EC50 (NADPH-coupled)) and 71 nM in experiment [2] (GK-GKRP EC50 (LC MS/MS)).
For the molecule `CC(O)(c1ccc(N2CCN(S(=O)(=O)c3cccs3)CC2CN2C[C@H]3C[C@@H]2CO3)cc1)C(F)(F)F` (stereo partly drawn) [Example 50, 1,1,1-trifluoro-2-(4-(2-((1R,4R)-2-oxa-5-azabicyclo[2.2.1]hept-5-ylmethyl)-4-(2-thiophenylsulfonyl)-1-piperazinyl)phenyl)-2-propanol], the EC50 is 670 nM in experiment [1] (GK-GKRP EC50 (NADPH-coupled)) and 880 nM in experiment [2] (GK-GKRP EC50 (LC MS/MS)).
As to `O=S(=O)(c1c[nH]cn1)N1CCN(c2ccc(C(O)(C(F)(F)F)C(F)(F)F)cc2)CC1` [Example 60, 1,1,1,3,3,3-hexafluoro-2-(4-(4-(1H-imidazol-4-ylsulfonyl)-1-piperazinyl)phenyl)-2-propanol], the EC50 in experiment [1] (GK-GKRP EC50 (NADPH-coupled)) turned out to be 2340 nM; in experiment [2] (GK-GKRP EC50 (LC MS/MS)), 2320 nM.
For `CC[C@H]1CN(S(=O)(=O)c2cccs2)CCN1c1ccc(C(O)(C(F)(F)F)C(F)(F)F)cc1` [Example 63, 2-(4-((2S)-2-ethyl-4-(2-thiophenylsulfonyl)-1-piperazinyl)phenyl)-1,1,1,3,3,3-hexafluoro-2-propanol], in that order: 679 nM and 1370 nM.
With `O=S(=O)(c1cccs1)N1CCN(c2ccc(C(O)(C(F)(F)F)C(F)(F)F)cc2)[C@@H](Cc2ccccc2)C1` [Example 64, 2-(4-((2S)-2-benzyl-4-(2-thiophenylsulfonyl)-1-piperazinyl)phenyl)-1,1,1,3,3,3-hexafluoro-2-propanol], the results for the EC50 in experiment [1] (GK-GKRP EC50 (NADPH-coupled)) and in experiment [2] (GK-GKRP EC50 (LC MS/MS)) were 308 nM and 772 nM, respectively.
Consider `O=S(=O)(c1cccs1)N1CCN(c2ccc(C(O)(C(F)(F)F)C(F)(F)F)cc2-c2ccccc2)CC1` [Example 69, 1,1,1,3,3,3-hexafluoro-2-(6-(4-(2-thiophenylsulfonyl)-1-piperazinyl)-3-biphenylyl)-2-propanol trifluoroacetate], for which the EC50 in experiment [1] (GK-GKRP EC50 (NADPH-coupled)) turned out to be 2120 nM; in experiment [2] (GK-GKRP EC50 (LC MS/MS)), 1750 nM.
In the case of `COc1cccc(-c2cc(C(O)(C(F)(F)F)C(F)(F)F)ccc2N2CCN(S(=O)(=O)c3cccs3)CC2)c1` [Example 70, 1,1,1,3,3,3-hexafluoro-2-(3′-methoxy-6-(4-(2-thiophenylsulfonyl)-1-piperazinyl)-3-biphenylyl)-2-propanol trifluoroacetate], the EC50 in experiment [1] (GK-GKRP EC50 (NADPH-coupled)) worked out at 3340 nM; in experiment [2] (GK-GKRP EC50 (LC MS/MS)), 1820 nM.
With `O=S(=O)(c1cccs1)N1CCN(c2ccc(C(O)(C(F)(F)F)C(F)(F)F)cc2-c2cccc(F)c2)CC1` [Example 71, 1,1,1,3,3,3-hexafluoro-2-(3′-fluoro-6-(4-(2-thiophenylsulfonyl)-1-piperazinyl)-3-biphenylyl)-2-propanol], the EC50 in experiment [1] (GK-GKRP EC50 (NADPH-coupled)) turned out to be 3670 nM; in experiment [2] (GK-GKRP EC50 (LC MS/MS)), 1840 nM.
